Laboratory results taken from patent US10329334B2 (SANOFI, priority 2015, dated 2019).
Starred links: 1 amine or outer side, 2 acyl side, 3 side chain; linkers in the order of their positions; H or OH if unused. Positions of bridges follow the written chain, without caps; N, C: chain ends. Non-standard residues stand in square brackets, D forms with d. Residues, ends and D or L forms follow the SMILES beside them. *: point of attachment. X1 = O=C([C@@H]1CCNc2c(N[*:1])cc3cc(O)c(O)cc3[n+]21)[*:2]; X4 = O=C([C@@H]1CCN=C2C(N[*:1])=Cc3cc(O)c(O)cc3N21)[*:2]; dOrn(N5-OH,N5-CHO) = N[C@H](CCCN(O)C=O)C(=O)O; Butanoyl(2-oxo,4-COOH) = O=C(O)CCC(=O)C(=O)*; X5 = O=CN(O)CCC[C@H](N[*:1])C(=O)[*:2]; d(aThr) = C[C@@H](O)[C@@H](N)C(=O)O; Suc = O=C(CCC(=O)[*:2])[*:1]; X2 = O=C1[C@@H](N*)CCCN1[O-]; Orn = NCCC[C@H](N)C(=O)O

Tests used:
Assay type in all cases: binding
[1] = biological target: T1, human lipocalin 2 (hNGAL) mutein SEQ ID NO: 35 (Homo sapiens, UniProt P80188, A60T/C107S/D97H/K145I/K154W/K93R/L123T/L56V/L90R/N85Q/Q48H/Q69G/R101D/R92I/S147R/S88D/T74A/W99Y/Y126Q/Y152I/Y72N); experiment: SPR (Biacore T200), mutein SEQ ID NO: 35; conditions: for specificity and crossreactivity (binding): 2 μM for all analytes
T1 construct: made in house; host or cells: E. coli
Procedure: (§4) In a Surface Plasmon Resonance (SPR) based assay a Biacore T200 instrument (GE Healthcare) was used to measure the binding affinity of muteins to pyoverdine I succinyl, -succinamid, -α-ketoglutaryl with complexed iron ion or to pyoverdine II succinyl, -succinamid, -α-ketoglutaryl with complexed iron ion or to pyoverdine III succinyl, -succinamid, -α-ketoglutaryl with complexed iron ion. Muteins selected for binding to pyoverdines and negative control (SEQ ID NO: 64) were biotinylated for 2 h at room temperature applying an appropriate excess of EZ-Link NHS-PEG4-Biotin (Thermo, Cat#21329) followed by separation of non-reacted Biotin using a Zeba Spin Desalting Plate (Thermo, Cat#21329) according to the manufactures instructions.

[2] = biological target: T2, human lipocalin 2 (hNGAL) mutein SEQ ID NO: 45 (Homo sapiens, UniProt P80188, A60L/C107S/D97K/I61A/K154W/K93H/L123Q/L56E/L90R/N116L/Q48H/Q69M/R101V/S147V/S88E/W99D/Y120D/Y126E/Y72M); experiment: SPR (Biacore T200), mutein SEQ ID NO: 45; conditions: 25° C.
T2 construct: made in house; host or cells: E. coli
Procedure: (§1) In a Surface Plasmon Resonance (SPR) based assay a Biacore T200 instrument (GE Healthcare) was used to measure the binding affinity of muteins to pyoverdine I succinyl, -succinamid, -α-ketoglutaryl with complexed iron ion or to pyoverdine II succinyl, -succinamid, -α-ketoglutaryl with complexed iron ion or to pyoverdine III succinyl, -succinamid, -α-ketoglutaryl with complexed iron ion. Muteins selected for binding to pyoverdines and negative control (SEQ ID NO: 64) were biotinylated for 2 h at room temperature applying an appropriate excess of EZ-Link NHS-PEG4-Biotin (Thermo, […]) followed by separation of non-reacted Biotin using a Zeba Spin Desalting Plate (Thermo, […]) according to the manufactures instructions.
(§2) In the SPR affinity assay, biotinylated muteins and negative control were captured on a sensor chip CAP using the Biotin CAPture Kit (GE Healthcare): Sensor Chip CAP is pre-immobilized with an ssDNA oligo. Undiluted Biotin CAPture Reagent (streptavidin conjugated with the complementary ss-DNA oligo) was applied at a flow rate of 2 μl/min for 300 s. Subsequently, 1 μg/ml to 100 μg/mL of biotinylated muteins or negative control were applied for 300 s at a flow rate of 5 μl/min. The reference channel was loaded with Biotin CAPture Reagent only.
(§3) Applying a flow rate of 30 μl/min, a single cycle or multi cycle kinetics approach was used with a sample contact time of 120-180 s and a dissociation time of 900-2400 s. […] After ligand immobilization, for analysis using single cycle kinetics all 4-5 concentrations of Pvd were applied consecutively in ascending order before the dissociation was monitored. For analysis using multi cycle kinetics 4 dilutions of Pvd were applied, each followed a dissociation phase. All measurements were performed at 25° C. […] Data were evaluated with Biacore T200 Evaluation software (V 1.0). Double referencing was used. A 1:1 Binding model was used to fit the raw data.

[3] = biological target: T3, human lipocalin 2 (hNGAL) mutein SEQ ID NO: 44 (Homo sapiens, UniProt P80188, A60L/C107S/D97K/I61T/K154W/K93R/L123Q/L56E/L90R/N116V/Q48H/Q69M/R101V/S147V/S88E/W99D/Y120D/Y126E/Y72M); experiment: SPR (Biacore T200), mutein SEQ ID NO: 44; conditions: 25° C.
T3 construct: made in house; host or cells: E. coli
Procedure: as §1, §2, §3

[4] = biological target: T4, human lipocalin 2 (hNGAL) mutein SEQ ID NO: 47 (Homo sapiens, UniProt P80188, A60L/C107S/D97K/I61A/K154W/K93H/L123Q/L56E/L62R/L90R/N116L/Q48H/Q69M/R101V/S125P/S147V/S88E/W99D/Y120D/Y126E/Y72M); experiment: SPR (Biacore T200), mutein SEQ ID NO: 47; conditions: 25° C.
T4 construct: made in house; host or cells: E. coli
Procedure: as §1, §2, §3

[5] = biological target: T5, human lipocalin 2 (hNGAL) mutein SEQ ID NO: 49 (Homo sapiens, UniProt P80188, A60L/C107S/D65G/D97K/I61A/K154W/K66R/K93H/L123Q/L56E/L90R/N116L/Q48H/Q69M/R101V/S125P/S147V/S88E/W99D/Y120D/Y126E/Y72M); experiment: SPR (Biacore T200), mutein SEQ ID NO: 49; conditions: 25° C.
T5 construct: made in house; host or cells: E. coli
Procedure: as §1, §2, §3

[6] = biological target: T6, human lipocalin 2 (hNGAL) mutein SEQ ID NO: 46 (G-N-I-K, positions 95-98, deleted) (Homo sapiens, UniProt P80188, A60L/C107S/D97Q/DEL115-118/I61A/K154W/K93Y/L123Q/L56E/L90R/Q48H/Q69K/R101V/S147V/S88E/W99D/Y120E/Y126E/Y152F/Y72M); experiment: SPR (Biacore T200), mutein SEQ ID NO: 46; conditions: 25° C.
T6 construct: made in house; host or cells: E. coli
Procedure: as §1, §2, §3

[7] = biological target: T7, human lipocalin 2 (hNGAL) mutein SEQ ID NO: 43 (Homo sapiens, UniProt P80188, A60L/C107S/D97K/I61A/K154W/K93Q/L123Q/L56E/L90R/N116L/Q48H/Q69M/R101V/S147V/S88E/W99D/Y120D/Y126E/Y72M); experiment: SPR (Biacore T200), mutein SEQ ID NO: 43; conditions: 25° C.
T7 construct: made in house; host or cells: E. coli
Procedure: as §1, §2, §3

[8] = biological target: T8, human lipocalin 2 (hNGAL) mutein SEQ ID NO: 48 (Homo sapiens, UniProt P80188, A60L/C107S/D67N/D97K/I61A/K154W/K93H/L123Q/L56E/L90R/N116L/Q48H/Q69M/R101V/S125P/S147V/S88E/T165P/W99D/Y120D/Y126E/Y72M); experiment: SPR (Biacore T200), mutein SEQ ID NO: 48; conditions: 25° C.
T8 construct: made in house; host or cells: E. coli
Procedure: as §1, §2, §3

[9] = biological target: negative control lipocalin SEQ ID NO: 64 (Homo sapiens, UniProt P80188, C107S/Q48H); experiment: SPR (Biacore T200), negative control SEQ ID NO: 64; conditions: 1200 nM
Procedure: as §1, §2
as §3, with “data. […]” for “data.”

[10] = biological target: T9, human lipocalin 2 (hNGAL) mutein SEQ ID NO: 33 (Homo sapiens, UniProt P80188, A60E/C107S/D97N/E64D/I61V/K145N/K154W/K93N/L123V/L56V/L90R/N116K/N85Q/Q48H/Q69G/R101E/R92H/S147K/S88E/W99F/Y120N/Y126M/Y152G/Y72P); experiment: SPR (Biacore T200), mutein SEQ ID NO: 33; conditions: 25° C.
T9 construct: made in house; host or cells: E. coli
Procedure: as §4

[11] = biological target: T10, human lipocalin 2 (hNGAL) mutein SEQ ID NO: 32 (Homo sapiens, UniProt P80188, A60E/C107S/D97N/E64D/I61V/K145N/K154W/K93N/L123V/L56V/L90R/N116K/N85D/Q48H/Q69G/R101E/R92H/S147K/S88E/W99F/Y120N/Y126M/Y152G/Y72P); experiment: SPR (Biacore T200), mutein SEQ ID NO: 32; conditions: 25° C.
T10 construct: made in house; host or cells: E. coli
T10 sequence (P80188 21-198 with the stated changes): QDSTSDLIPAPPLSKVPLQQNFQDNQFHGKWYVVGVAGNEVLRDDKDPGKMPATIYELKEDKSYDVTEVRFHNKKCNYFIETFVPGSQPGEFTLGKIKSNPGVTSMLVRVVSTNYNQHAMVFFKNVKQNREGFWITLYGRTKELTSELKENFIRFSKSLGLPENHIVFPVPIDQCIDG
Procedure: as §4

T1 sequence (P80188 21-198 with the stated changes): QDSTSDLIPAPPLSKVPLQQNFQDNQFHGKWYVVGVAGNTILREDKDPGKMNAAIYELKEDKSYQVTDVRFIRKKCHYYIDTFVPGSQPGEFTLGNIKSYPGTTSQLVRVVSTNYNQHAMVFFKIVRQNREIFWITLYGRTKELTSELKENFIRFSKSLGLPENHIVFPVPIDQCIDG
T6 sequence (P80188 with tags, fused parts or gaps with the stated changes): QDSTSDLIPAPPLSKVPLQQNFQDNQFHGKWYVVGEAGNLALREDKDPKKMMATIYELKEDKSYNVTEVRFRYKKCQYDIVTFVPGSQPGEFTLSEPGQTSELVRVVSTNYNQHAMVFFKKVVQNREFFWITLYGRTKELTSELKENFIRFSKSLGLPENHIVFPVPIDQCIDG
T7 sequence (P80188 21-198 with the stated changes): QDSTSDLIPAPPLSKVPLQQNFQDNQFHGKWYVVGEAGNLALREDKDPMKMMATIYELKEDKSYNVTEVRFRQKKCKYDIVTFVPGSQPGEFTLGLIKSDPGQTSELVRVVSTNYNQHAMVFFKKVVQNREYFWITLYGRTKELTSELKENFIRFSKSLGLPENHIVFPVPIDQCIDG
T8 sequence (P80188 21-198 with the stated changes): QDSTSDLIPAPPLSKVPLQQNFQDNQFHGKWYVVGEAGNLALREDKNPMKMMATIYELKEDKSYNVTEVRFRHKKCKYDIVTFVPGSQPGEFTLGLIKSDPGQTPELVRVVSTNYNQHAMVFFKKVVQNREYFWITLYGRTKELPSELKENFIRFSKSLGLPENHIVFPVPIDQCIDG
T3 sequence (P80188 21-198 with the stated changes): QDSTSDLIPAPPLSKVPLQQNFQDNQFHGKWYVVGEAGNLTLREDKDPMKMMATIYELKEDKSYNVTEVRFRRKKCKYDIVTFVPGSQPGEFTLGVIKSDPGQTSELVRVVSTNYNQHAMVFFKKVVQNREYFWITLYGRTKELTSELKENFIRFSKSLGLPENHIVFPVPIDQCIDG
T2 sequence (P80188 21-198 with the stated changes): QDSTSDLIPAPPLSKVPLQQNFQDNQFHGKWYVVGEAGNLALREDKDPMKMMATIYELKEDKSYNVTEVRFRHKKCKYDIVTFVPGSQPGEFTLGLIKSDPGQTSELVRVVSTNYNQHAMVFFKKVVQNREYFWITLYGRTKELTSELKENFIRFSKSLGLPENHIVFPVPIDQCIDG
T4 sequence (P80188 21-198 with the stated changes): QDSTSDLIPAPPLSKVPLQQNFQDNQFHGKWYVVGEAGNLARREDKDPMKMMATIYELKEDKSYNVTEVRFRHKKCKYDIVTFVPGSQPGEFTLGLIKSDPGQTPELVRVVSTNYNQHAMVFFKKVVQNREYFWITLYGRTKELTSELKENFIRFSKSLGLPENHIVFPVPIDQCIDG
T9 sequence (P80188 21-198 with the stated changes): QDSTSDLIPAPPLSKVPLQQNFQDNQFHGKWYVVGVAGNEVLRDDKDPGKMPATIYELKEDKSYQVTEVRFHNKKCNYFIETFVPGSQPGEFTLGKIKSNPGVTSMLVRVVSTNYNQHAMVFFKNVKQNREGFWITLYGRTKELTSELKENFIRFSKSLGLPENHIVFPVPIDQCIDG
T5 sequence (P80188 21-198 with the stated changes): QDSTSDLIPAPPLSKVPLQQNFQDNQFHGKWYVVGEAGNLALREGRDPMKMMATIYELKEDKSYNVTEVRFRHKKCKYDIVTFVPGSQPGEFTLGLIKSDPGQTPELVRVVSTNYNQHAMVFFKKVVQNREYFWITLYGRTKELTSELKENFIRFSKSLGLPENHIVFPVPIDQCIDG
negative control lipocalin SEQ ID NO: 64, sequence (P80188 21-198 Q48H/C107S): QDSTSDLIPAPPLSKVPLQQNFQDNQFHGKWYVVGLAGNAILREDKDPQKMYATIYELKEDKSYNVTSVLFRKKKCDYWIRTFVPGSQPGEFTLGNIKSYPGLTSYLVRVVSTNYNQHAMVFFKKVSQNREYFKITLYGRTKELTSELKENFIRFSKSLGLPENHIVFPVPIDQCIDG

## CN1[C@@H]([C@H]2CSC(c3ccccc3O)=N2)SC[C@H]1C(=O)O [Pyochelin, pyochelin]
[1]
  specificity and crossreactivity (binding): absence of binding

## NC(=O)CC[C@H](NC(=O)[C@H](CCCN([O-])C=O)NC(=O)[C@@H]1CCN=C([C@@H](CO)NC(=O)[C@@H]2CCNc3c(NC(=O)C(=O)CCC(=O)O)cc4cc([O-])c([O-])cc4[n+]32)N1)C(=O)N[C@H](CCC(N)=O)C(=O)N[C@H](CCCN([O-])C=O)C(=O)NCC(=O)O.[Fe+3] [Pvd III aKG (+Fe)]
[2]
  Kd: 6.99 nM
  koff: 0.00033 s⁻¹
  kon: 47300 M⁻¹ s⁻¹
[3]
  Kd: 5.64 nM
  koff: 0.000271 s⁻¹
  kon: 48200 M⁻¹ s⁻¹
[4]
  Kd: 8.97 nM
  koff: 0.000262 s⁻¹
  kon: 29200 M⁻¹ s⁻¹
[5]
  Kd: 1.53 nM
  koff: 4.29e-05 s⁻¹
  kon: 28100 M⁻¹ s⁻¹
[6]
  Kd: 3.15 nM
  koff: 0.000241 s⁻¹
  kon: 76700 M⁻¹ s⁻¹
[7]
  Kd: 5.29 nM
  koff: 0.000303 s⁻¹
  kon: 57300 M⁻¹ s⁻¹
[8]
  Kd: 5.81 nM
  koff: 0.000158 s⁻¹
  kon: 27200 M⁻¹ s⁻¹

## C[C@@H](O)[C@@H]1NC(=O)[C@H](CCCN(O)C=O)NC(=O)[C@@H](NC(=O)[C@H](CCCN(O)C=O)NC(=O)[C@@H](CO)NC(=O)[C@H](CCCNC(=N)N)NC(=O)[C@@H](CO)NC(=O)[C@@H]2CCN=C3C(NC(=O)CCC(=O)O)=Cc4cc(O)c(O)cc4N32)CCCCNC(=O)[C@H]([C@@H](C)O)NC1=O.[Fe+3] [Pvd I s (+Fe)] (Suc-[X4][dS]R[dS][X5]K[X5]TT; lactam 6-C)
[9]
  absence of binding to negative control: absence of binding

## C[C@@H](O)[C@@H](NC(=O)CNC(=O)[C@H](CCCN)NC(=O)[C@@H](CCCN([O-])C=O)NC(=O)[C@@H](CO)NC(=O)[C@@H]1CCNc2c(NC(=O)CCC(=O)O)cc3cc([O-])c([O-])cc3[n+]21)C(=O)N[C@@H](CO)C(=O)N[C@H]1CCCN([O-])C1=O.[Fe+3] [Pvd II s (+Fe)] (Suc-[X1][dS][dOrn(N5-OH,N5-CHO)][Orn]G[d(aThr)]S-X2)
[9]
  absence of binding to negative control: absence of binding

## CC(=O)N(O)CCCCCNC(=O)CCC(=O)N(O)CCCCCNC(=O)CCC(=O)N(O)CCCCCN [Desferoxamin, desferoxamine, reference compound]
[1]
  specificity and crossreactivity (binding): absence of binding

## NC(=O)CCC(=O)Nc1cc2cc([O-])c([O-])cc2[n+]2c1NCC[C@H]2C(=O)N[C@H](CO)C1=NCC[C@@H](C(=O)N[C@@H](CCCN([O-])C=O)C(=O)N[C@@H](CCC(N)=O)C(=O)N[C@H](CCC(N)=O)C(=O)N[C@H](CCCN([O-])C=O)C(=O)NCC(=O)O)N1.[Fe+3] [Pvd III sa (+Fe)]
[2]
  Kd: 3.03 nM
  koff: 9.91e-05 s⁻¹
  kon: 32700 M⁻¹ s⁻¹
[3]
  Kd: 2.94 nM
  koff: 8.9e-05 s⁻¹
  kon: 30300 M⁻¹ s⁻¹
[4]
  Kd: 0.2 nM
  koff: 2.52e-05 s⁻¹
  kon: 128000 M⁻¹ s⁻¹
[5]
  Kd: 0.84 nM
  koff: 0.000112 s⁻¹
  kon: 134000 M⁻¹ s⁻¹
[6]
  Kd: 1.58 nM
  koff: 6.9e-05 s⁻¹
  kon: 43600 M⁻¹ s⁻¹
[7]
  Kd: 3.04 nM
  koff: 0.000107 s⁻¹
  kon: 35200 M⁻¹ s⁻¹
[8]
  Kd: 0.64 nM
  koff: 9.51e-05 s⁻¹
  kon: 148000 M⁻¹ s⁻¹

## C[C@@H](O)[C@@H](NC(=O)CNC(=O)[C@H](CCCN)NC(=O)[C@@H](CCCN([O-])C=O)NC(=O)[C@@H](CO)NC(=O)[C@@H]1CCNc2c(NC(=O)C(=O)CCC(=O)O)cc3cc([O-])c([O-])cc3[n+]21)C(=O)N[C@@H](CO)C(=O)N[C@H]1CCCN([O-])C1=O.[Fe+3] [Pvd II aKG (+Fe)] ({Butanoyl(2-oxo,4-COOH)}-[X1][dS][dOrn(N5-OH,N5-CHO)][Orn]G[d(aThr)]S-X2)
[1]; 25° C.
  Kd: 3.42 nM
  koff: 0.000149 s⁻¹
  kon: 43500 M⁻¹ s⁻¹
[10]
  Kd: 4.19 nM
  koff: 0.000416 s⁻¹
  kon: 99300 M⁻¹ s⁻¹
[11]
  Kd: 3.44 nM
  koff: 0.000374 s⁻¹
  kon: 109000 M⁻¹ s⁻¹
